# Data from patent US12252524B2, “GIP/GLP1 co-agonist compounds” (Eli Lilly and Company, priority 2018, dated 2025).
# Numbered stars: 1 amine (or outer) side, 2 acyl side, 3 side chain; on linkers, the order of the positions; unused ones are H or OH. Square brackets hold non-standard residues; d marks the D form. Side chains are listed from the residue outwards. Peptide text beside a SMILES is read from it. * marks the point of attachment. C20 diacid = O=C(O)CCCCCCCCCCCCCCCCCCC(=O)*; C18 diacid = O=C(O)CCCCCCCCCCCCCCCCC(=O)*; αMePhe(2-F) = C[C@](N)(Cc1ccccc1F)C(=O)O; γGlu = O=C(O)[C@H](CCC(=O)[*:2])N[*:1]; Nle = CCCC[C@H](N)C(=O)O; Orn = NCCC[C@H](N)C(=O)O; AEEA = NCCOCCOCC(=O)O; Aib = CC(C)(N)C(=O)O
# Key:
# [1] = target: T1, gastric inhibitory peptide receptor (GIPR) (Homo sapiens, UniProt P48546); assay: cAMP pharmacological functional assay in presence of casein, hGIPR; format: cell-based; details: HEK293 cells expressing hGIPR, 0.1% Casein, geometric mean; read-out: hGIPR cAMP Rel EC50 nM (SEM, n)
# T1 sequence (P48546 22-466): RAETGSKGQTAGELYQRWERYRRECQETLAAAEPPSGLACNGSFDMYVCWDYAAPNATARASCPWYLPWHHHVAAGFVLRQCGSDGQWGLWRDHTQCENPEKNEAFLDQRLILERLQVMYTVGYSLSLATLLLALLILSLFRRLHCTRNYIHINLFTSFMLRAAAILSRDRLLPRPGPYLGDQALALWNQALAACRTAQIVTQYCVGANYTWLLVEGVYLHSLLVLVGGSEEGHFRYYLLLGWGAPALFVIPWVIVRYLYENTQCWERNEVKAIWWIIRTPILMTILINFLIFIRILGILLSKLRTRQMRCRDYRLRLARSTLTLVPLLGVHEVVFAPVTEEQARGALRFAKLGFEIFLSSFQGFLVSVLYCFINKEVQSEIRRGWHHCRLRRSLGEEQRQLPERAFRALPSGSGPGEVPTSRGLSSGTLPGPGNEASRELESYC
# human Gcg receptor = target: T2, human Gcg receptor (Homo sapiens, UniProt P47871); assay: [125I]-Glucagon binding (SPA), human Gcg receptor; details: read-out: hGLcgR Ki, nM (SEM, n)
# T2 construct: expressed in transfected cells; crude membranes
# T2 sequence (P47871 26-477): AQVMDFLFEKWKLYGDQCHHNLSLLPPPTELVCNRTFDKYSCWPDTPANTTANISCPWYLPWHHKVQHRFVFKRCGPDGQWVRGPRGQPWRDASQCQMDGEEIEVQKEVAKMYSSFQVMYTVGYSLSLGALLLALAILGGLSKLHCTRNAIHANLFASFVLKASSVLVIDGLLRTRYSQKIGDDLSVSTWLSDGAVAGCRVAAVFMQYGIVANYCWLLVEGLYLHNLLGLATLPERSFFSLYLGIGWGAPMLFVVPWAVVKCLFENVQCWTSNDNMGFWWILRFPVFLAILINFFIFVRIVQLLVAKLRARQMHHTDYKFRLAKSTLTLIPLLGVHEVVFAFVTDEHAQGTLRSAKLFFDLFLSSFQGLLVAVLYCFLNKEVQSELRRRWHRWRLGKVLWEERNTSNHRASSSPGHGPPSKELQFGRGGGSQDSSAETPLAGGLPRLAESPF
# Summary of the method: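 Cell pellets were lysed in hypotonic Tris buffer, pH 7.5, homogenized, and spun at low then high speed to give crude membranes. Ki was derived from the fitted IC50.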
# human GLP-1R = human GLP-1R (Homo sapiens, UniProt P43220); assay: [125I]-GLP-1 binding (SPA), human GLP-1 receptor; parameters: expressed in transfected cells; crude membranes; details: read-out: hGLP1R Ki, (nM) (SEM, n)
# Sequence of human GLP-1R (P43220 24-463): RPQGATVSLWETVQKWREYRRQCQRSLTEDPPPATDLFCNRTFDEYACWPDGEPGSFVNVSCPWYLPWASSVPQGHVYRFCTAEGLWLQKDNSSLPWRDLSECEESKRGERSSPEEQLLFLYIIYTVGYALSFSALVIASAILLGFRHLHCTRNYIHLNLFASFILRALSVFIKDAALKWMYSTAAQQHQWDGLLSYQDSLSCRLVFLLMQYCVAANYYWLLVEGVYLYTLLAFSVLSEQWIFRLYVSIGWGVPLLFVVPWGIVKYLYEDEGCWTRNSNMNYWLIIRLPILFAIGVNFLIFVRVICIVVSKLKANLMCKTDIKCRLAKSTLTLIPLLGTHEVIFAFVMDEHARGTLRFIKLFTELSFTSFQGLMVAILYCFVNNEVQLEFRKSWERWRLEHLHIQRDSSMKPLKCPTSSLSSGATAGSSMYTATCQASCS
# Summary of the method: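 Assay buffer: HEPES 25 mM, pH 7.4, CaCl2 2.5 mM, MgCl2 1 mM, with EDTA-free protease inhibitors. Receptor came from crude cell membranes prepared by homogenization and centrifugation at 4° C. IC50s came from four-parameter fits (maximum, minimum, IC50, Hill slope) and were expressed as Ki geometric means with SEM.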
# human GIP receptor = target: T3, human GIP receptor (Homo sapiens, UniProt P48546); assay: [125I]-GIP binding (SPA), human GIP receptor; details: read-out: hGIPR Ki, nM (SEM, n)
# T3 construct: expressed in transfected cells; crude membranes
# T3 sequence (P48546 22-466): T1 sequence (P48546 22-466)
# [2] = target: human GLP-1 receptor (GLP-1R) (Homo sapiens, UniProt P43220); assay: cAMP pharmacological functional assay in presence of casein, hGLP-1R; format: cell-based; details: HEK293 cells expressing hGLP-1R, 0.1% Casein, geometric mean; read-out: hGLP1R cAMP Rel EC50 nM (SEM, n)
# Sequence of human GLP-1 receptor (GLP-1R) (P43220 24-463): as above
Structure (SMILES),EC50 [1] [nM],Ki (human Gcg receptor) [nM],Ki (human GLP-1R) [nM],Ki (human GIP receptor) [nM],EC50 [2] [nM]
CC[C@H](C)[C@H](NC(=O)[C@H](CC(C)C)NC(=O)[C@H](Cc1ccc(O)cc1)NC(=O)[C@@H](CCC(=O)O)NC(=O)[C@@H](NC(=O)[C@H](Cc1ccccc1)NC(=O)[C@H](CCC(=O)O)NC(=O)C(C)(C)NC(=O)[C@H](CCC(N)=O)NC(=O)[C@H](C)NC(=O)[C@H](CCCCNC(=O)COCCOCCNC(=O)COCCOCCNC(=O)CC[C@H](NC(=O)CCCCCCCCCCCCCCCCC(=O)O)C(=O)O)NC(=O)[C@H](CCCN)NC(=O)[C@H](CC(=O)O)NC(=O)[C@H](CC(C)C)NC(=O)[C@H](CC(C)C)NC(=O)[C@@H](NC(=O)[C@H](CO)NC(=O)[C@H](Cc1ccc(O)cc1)NC(=O)[C@H](CC(=O)O)NC(=O)[C@H](CO)NC(=O)[C@@H](NC(=O)[C@](C)(Cc1ccccc1F)NC(=O)[C@@H](NC(=O)CNC(=O)[C@H](CCC(=O)O)NC(=O)C(C)(C)NC(=O)[C@@H](N)Cc1ccc(O)cc1)[C@@H](C)O)[C@@H](C)O)[C@@H](C)CC)[C@@H](C)CC)C(=O)N[C@@H](CCC(=O)O)C(=O)NCC(=O)NCC(=O)N1CCC[C@H]1C(=O)N[C@@H](CO)C(=O)N[C@@H](CO)C(=O)NCC(=O)N[C@@H](C)C(=O)N1CCC[C@H]1C(=O)N1CCC[C@H]1C(=O)N1CCC[C@H]1C(=O)N[C@@H](CO)C(N)=O [Example 248] (H-Y[Aib]EGT[αMePhe(2-F)]TSDYSILLD[Orn]K([AEEA-AEEA-γGlu-C18 diacid])AQ[Aib]EFI[dE]YLIEGGPSSGAPPPS-NH2),0.0328,> 1050,2.4,0.0397,0.0428
CCCC[C@H](NC(=O)[C@@H](NC(=O)[C@H](CO)NC(=O)[C@H](Cc1ccc(O)cc1)NC(=O)[C@H](CC(=O)O)NC(=O)[C@H](CO)NC(=O)[C@@H](NC(=O)[C@](C)(Cc1ccccc1F)NC(=O)[C@@H](NC(=O)CNC(=O)[C@H](CCC(=O)O)NC(=O)C(C)(C)NC(=O)[C@@H](N)Cc1ccc(O)cc1)[C@@H](C)O)[C@@H](C)O)[C@@H](C)CC)C(=O)N[C@@H](CC(C)C)C(=O)N[C@@H](CC(=O)O)C(=O)N[C@@H](CCCN)C(=O)N[C@@H](CCCCNC(=O)COCCOCCNC(=O)COCCOCCNC(=O)CC[C@H](NC(=O)CCCCCCCCCCCCCCCCC(=O)O)C(=O)O)C(=O)N[C@@H](C)C(=O)N[C@@H](CCC(N)=O)C(=O)NC(C)(C)C(=O)N[C@@H](CCC(=O)O)C(=O)N[C@@H](Cc1ccccc1)C(=O)N[C@H](C(=O)N[C@H](CCC(=O)O)C(=O)N[C@@H](Cc1ccc(O)cc1)C(=O)N[C@@H](CC(C)C)C(=O)N[C@H](C(=O)N[C@@H](CCC(=O)O)C(=O)NCC(=O)NCC(=O)N1CCC[C@H]1C(=O)N[C@@H](CO)C(=O)N[C@@H](CO)C(=O)NCC(=O)N[C@@H](C)C(=O)N1CCC[C@H]1C(=O)N1CCC[C@H]1C(=O)N1CCC[C@H]1C(=O)N[C@@H](CO)C(N)=O)[C@@H](C)CC)[C@@H](C)CC [Example 249] (H-Y[Aib]EGT[αMePhe(2-F)]TSDYSI[Nle]LD[Orn]K([AEEA-AEEA-γGlu-C18 diacid])AQ[Aib]EFI[dE]YLIEGGPSSGAPPPS-NH2),0.0437,> 1000,2.35,0.0394,0.0446
CC[C@H](C)[C@H](NC(=O)[C@H](CC(C)C)NC(=O)[C@H](Cc1ccc(O)cc1)NC(=O)[C@@H](CCC(=O)O)NC(=O)[C@@H](NC(=O)[C@H](Cc1ccccc1)NC(=O)[C@H](CCC(=O)O)NC(=O)C(C)(C)NC(=O)[C@H](CCC(N)=O)NC(=O)[C@H](C)NC(=O)[C@H](CCCCNC(=O)COCCOCCNC(=O)COCCOCCNC(=O)CC[C@H](NC(=O)CCCCCCCCCCCCCCCCCCC(=O)O)C(=O)O)NC(=O)[C@H](CCCN)NC(=O)[C@H](CC(=O)O)NC(=O)[C@H](CC(C)C)NC(=O)C(C)(C)NC(=O)[C@@H](NC(=O)[C@H](CO)NC(=O)[C@H](Cc1ccc(O)cc1)NC(=O)[C@H](CC(=O)O)NC(=O)[C@H](CO)NC(=O)[C@@H](NC(=O)[C@](C)(Cc1ccccc1F)NC(=O)[C@@H](NC(=O)CNC(=O)[C@H](CCC(=O)O)NC(=O)C(C)(C)NC(=O)[C@@H](N)Cc1ccc(O)cc1)[C@@H](C)O)[C@@H](C)O)[C@@H](C)CC)[C@@H](C)CC)C(=O)N[C@@H](CCC(=O)O)C(=O)NCC(=O)NCC(=O)N1CCC[C@H]1C(=O)N[C@@H](CO)C(=O)N[C@@H](CO)C(=O)NCC(=O)N[C@@H](C)C(=O)N1CCC[C@H]1C(=O)N1CCC[C@H]1C(=O)N1CCC[C@H]1C(=O)N[C@@H](CO)C(N)=O [Example 250] (H-Y[Aib]EGT[αMePhe(2-F)]TSDYSI[Aib]LD[Orn]K([AEEA-AEEA-γGlu-C20 diacid])AQ[Aib]EFI[dE]YLIEGGPSSGAPPPS-NH2),0.0376,198,1.72,0.0171,0.0306
CC[C@H](C)[C@H](NC(=O)[C@H](CC(C)C)NC(=O)C(C)(Cc1ccc(O)cc1)NC(=O)[C@@H](CCC(=O)O)NC(=O)[C@@H](NC(=O)[C@H](Cc1ccccc1)NC(=O)[C@H](C)NC(=O)C(C)(C)NC(=O)[C@H](CCC(N)=O)NC(=O)[C@H](C)NC(=O)[C@H](CCCCNC(=O)COCCOCCNC(=O)COCCOCCNC(=O)[C@@H](N)CCCCNC(=O)CCCCCCCCCCCCCCCCCCC(=O)O)NC(=O)[C@H](CCCN)NC(=O)[C@H](CC(=O)O)NC(=O)[C@H](CC(C)C)NC(=O)C(C)(CC(C)C)NC(=O)[C@@H](NC(=O)[C@H](CO)NC(=O)[C@H](Cc1ccncc1)NC(=O)[C@H](CC(=O)O)NC(=O)[C@H](CO)NC(=O)[C@@H](NC(=O)C(C)(Cc1ccccc1F)NC(=O)[C@@H](NC(=O)CNC(=O)[C@H](CCC(=O)O)NC(=O)C(C)(C)NC(=O)[C@@H](N)Cc1ccc(O)cc1)[C@@H](C)O)[C@@H](C)O)[C@@H](C)CC)[C@@H](C)CC)C(=O)N[C@@H](CCC(=O)O)C(=O)NCC(=O)NCC(=O)N1CCC[C@H]1C(=O)N[C@@H](CO)C(=O)N[C@@H](CO)C(=O)NCC(=O)N[C@@H](C)C(=O)N1CCC[C@H]1C(=O)N1CCC[C@H]1C(=O)N1CCC[C@H]1C(=O)N[C@@H](CO)C(N)=O (stereo partly shown) [Example 251],0.0292,21.2,1.09,0.0249,0.081
CC[C@H](C)[C@H](NC(=O)[C@H](CC(C)C)NC(=O)C(C)(Cc1ccc(O)cc1)NC(=O)[C@@H](CCC(=O)O)NC(=O)[C@@H](NC(=O)[C@H](Cc1ccccc1)NC(=O)[C@H](C)NC(=O)C(C)(C)NC(=O)[C@H](CCC(N)=O)NC(=O)[C@H](C)NC(=O)[C@H](CCCCNC(=O)COCCOCCNC(=O)COCCOCCNC(=O)[C@@H](N)CCCCNC(=O)CCCCCCCCCCCCCCCCCCC(=O)O)NC(=O)[C@H](CCCN)NC(=O)[C@H](CC(=O)O)NC(=O)[C@H](CC(C)C)NC(=O)C(C)(CC(C)C)NC(=O)[C@@H](NC(=O)[C@H](CO)NC(=O)[C@H](Cc1ccncc1)NC(=O)[C@H](CC(=O)O)NC(=O)[C@H](CO)NC(=O)[C@@H](NC(=O)C(C)(Cc1ccccc1F)NC(=O)[C@@H](NC(=O)CNC(=O)[C@H](CCC(=O)O)NC(=O)C(C)(C)NC(=O)[C@@H](N)Cc1ccc(O)cc1)[C@@H](C)O)[C@@H](C)O)[C@@H](C)CC)[C@@H](C)CC)C(=O)N[C@@H](C)C(=O)NCC(=O)NCC(=O)N1CCC[C@H]1C(=O)N[C@@H](CO)C(=O)N[C@@H](CO)C(=O)NCC(=O)N[C@@H](C)C(=O)N1CCC[C@H]1C(=O)N1CCC[C@H]1C(=O)N1CCC[C@H]1C(=O)N[C@@H](CO)C(N)=O (stereo partly shown) [Example 252],0.093,26,0.383,0.00971,0.0483
